Among the data in PubChem BioAssay (NCI) are GI50 and TGI values, retold here.

Several values for one entry are separate records, joined by “and”; a condition that tells them apart may be missing. Identical values can stand only once.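 Step 1: Grow cells in 96-well plates. Step 2: Expose to compound for 48 hours at 5 concentrations. Step 3: Interpolate endpoints linearly; if unreached, use highest concentration. Here, GI50 denotes the concentration required for 50% inhibition of growth. The concentration for full growth arrest is given as TGI.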

Among the test systems are UACC-257 melanoma; SF-295 CNS; SN12C renal; LOX IMVI melanoma; SK-MEL-5 melanoma; NCI/ADR-RES ovarian; SW-620 colon; CCRF-CEM leukemia; BT-549 breast; PC-3 prostate.
What all share (test): NCI-60 cell line screen, 48 h

As for `O=[N+]([O-])c1cccc(C2CC(c3ccccc3)=Nc3ccccc3S2)c1` (configuration not stated), the GI50 in the assay on UACC-257 melanoma is 21.6 µM; with SF-295 CNS, 25.1 µM; in the assay on SN12C renal, 13.4 µM; with LOX IMVI melanoma it was 3.02 µM; in the assay with SK-MEL-5 melanoma it was 15.9 µM; in the assay on NCI/ADR-RES ovarian, 22.1 µM. For the same compound, the GI50 was 3.03 µM in the assay on SW-620 colon, 5.91 µM in the assay on CCRF-CEM leukemia, 13.2 µM in the assay on BT-549 breast and 10.1 µM with PC-3 prostate. Moreover, the TGI in the assay on UACC-257 melanoma is 61 µM; in the assay with SF-295 CNS, 77.7 µM; in the assay with SN12C renal, 26.8 µM; with LOX IMVI melanoma, 11.9 µM; in the assay on SK-MEL-5 melanoma it was 29.6 µM; in the assay on NCI/ADR-RES ovarian, more than 100 µM. Further, the TGI with SW-620 colon was 12 µM; in the assay with CCRF-CEM leukemia, more than 100 µM; in the assay with BT-549 breast, 26.7 µM; in the assay with PC-3 prostate, 28.7 µM.
With `N=c1c2c(=N)n3c(nc2nc2n1-c1ccccc1Sc1ccccc1-2)sc1cc(Cl)ccc13`, the GI50 with UACC-257 melanoma is 2.59 µM; in the assay on SF-295 CNS, 1.82 µM; in the assay with SN12C renal it was 2.33 µM; with LOX IMVI melanoma, 2.7 µM; in the assay with SK-MEL-5 melanoma, 1.12 µM; in the assay with NCI/ADR-RES ovarian it was 1.84 µM. Besides, the GI50 is 3.14 µM in the assay with SW-620 colon, 2.59 µM with CCRF-CEM leukemia, 3.97 µM in the assay on BT-549 breast and 2.64 µM with PC-3 prostate. The TGI is 54.8 µM with UACC-257 melanoma; 9.52 µM with SF-295 CNS; 32.6 µM in the assay with SN12C renal; 14.6 µM in the assay on LOX IMVI melanoma; 4 µM in the assay with SK-MEL-5 melanoma; 44.6 µM in the assay with NCI/ADR-RES ovarian. Besides, the TGI with SW-620 colon is 71.1 µM; in the assay on CCRF-CEM leukemia, more than 100 µM; in the assay with BT-549 breast, more than 100 µM; in the assay with PC-3 prostate, more than 100 µM.
As to `CN(Cc1cnc2nc(N)nc(N)c2n1)c1ccc(C(=O)NC(CCC(=O)O)C(=O)O)cc1Br` (configuration not stated), the GI50 was 0.168 µM with UACC-257 melanoma; less than 0.01 µM in the assay on SF-295 CNS; less than 0.01 µM in the assay with SN12C renal; less than 0.01 µM in the assay with LOX IMVI melanoma; less than 0.01 µM in the assay with SK-MEL-5 melanoma; less than 0.01 µM in the assay with NCI/ADR-RES ovarian. Further, the GI50 in the assay with SW-620 colon, with CCRF-CEM leukemia, in the assay on BT-549 breast and in the assay with PC-3 prostate was less than 0.01 µM each time. The TGI in the assay with UACC-257 melanoma was 16.5 µM; in the assay on SF-295 CNS it was 0.201 µM; with SN12C renal, more than 100 µM; in the assay with LOX IMVI melanoma, 2.1 µM; in the assay on SK-MEL-5 melanoma it was 4.51 µM; in the assay on NCI/ADR-RES ovarian, more than 100 µM. Also, the TGI in the assay on SW-620 colon is more than 83.9 µM; in the assay on CCRF-CEM leukemia, more than 44.5 µM; in the assay on BT-549 breast, 2.5 µM; in the assay on PC-3 prostate, more than 100 µM.
With `CO[C@H]1C[C@@H]2CC[C@@H](C)[C@@](O)(O2)C(=O)C(=O)N2CCCC[C@H]2C(=O)O[C@H]([C@H](C)C[C@@H]2CC[C@@H](OCCO)[C@H](OC)C2)CC(=O)[C@H](C)C=C(C)[C@@H](O)[C@@H](OC)C(=O)[C@H](C)C[C@H](C)/C=C/C=C/C=C1C`, the GI50 is 5.88 µM in the assay with UACC-257 melanoma; less than 0.01 µM in the assay with SF-295 CNS; 1.82 µM in the assay with SN12C renal; less than 0.01 µM with LOX IMVI melanoma; 1.75 µM in the assay with SK-MEL-5 melanoma; 3.26 µM with NCI/ADR-RES ovarian. Besides, the values for the GI50 with SW-620 colon, in the assay on BT-549 breast and with PC-3 prostate were 8.49 µM, less than 0.01 µM and less than 0.01 µM, respectively. The TGI in the assay with UACC-257 melanoma came out at 22.2 µM; with SF-295 CNS it was 17.3 µM; with SN12C renal, 31.1 µM; in the assay on LOX IMVI melanoma it was 17.8 µM; in the assay on SK-MEL-5 melanoma, 18.1 µM; with NCI/ADR-RES ovarian, 31.7 µM. Also, the TGI was 23.9 µM in the assay on SW-620 colon, more than 43.1 µM with CCRF-CEM leukemia and 16.7 µM with PC-3 prostate.
As to `CCCCCCCCCCCCCC[C@@H](O)[C@H]1CC[C@H]([C@H]2CC[C@H]([C@H](O)CCCCCC[C@@H](O)CC3=C[C@H](C)OC3=O)O2)O1`, the GI50 in the assay on UACC-257 melanoma is 1.62 µM; in the assay on SF-295 CNS, 1.18 µM; in the assay with SN12C renal, more than 25 µM; in the assay with SK-MEL-5 melanoma it was 0.717 µM; in the assay with NCI/ADR-RES ovarian, 0.676 µM; with SW-620 colon, 2.44 µM. Besides, the figures for the GI50 in the assay on CCRF-CEM leukemia, with BT-549 breast and in the assay on PC-3 prostate were 2.06 µM, 1.88 µM and 2.13 µM, respectively. Besides, the TGI in the assay on UACC-257 melanoma was 6.01 µM and > 25 µM; in the assay with SF-295 CNS, more than 25 µM; with SN12C renal, 6.47 µM and > 25 µM; with LOX IMVI melanoma, 2.56 µM and > 25 µM; with SK-MEL-5 melanoma, 2.52 µM and > 25 µM; with NCI/ADR-RES ovarian, 2.95 µM and > 25 µM. The TGI in the assay on SW-620 colon is more than 25 µM; in the assay with CCRF-CEM leukemia it was more than 25 µM; in the assay with BT-549 breast, 4.86 µM and > 25 µM; in the assay on PC-3 prostate, 7.31 µM and > 25 µM.
In the case of `CC[C@H](C)[C@H](NC(=O)CN(C)C)C(=O)N(C)[C@H](C[C@@H](OC(C)=O)c1nc(C(=O)NC23CC(C(=O)OC)(C2)C3)cs1)C(C)C`, the GI50 in the assay on UACC-257 melanoma was more than 25 µM; in the assay on SF-295 CNS, 0.647 µM; with SN12C renal, 0.268 µM; with LOX IMVI melanoma, 0.276 µM; in the assay on SK-MEL-5 melanoma, 0.572 µM; with NCI/ADR-RES ovarian, more than 21.4 µM. Also, the GI50 in the assay on SW-620 colon is 0.163 µM; in the assay on CCRF-CEM leukemia it was 0.0932 µM; with BT-549 breast, 0.151 µM; in the assay on PC-3 prostate, 0.804 µM. Also, the TGI in the assay with UACC-257 melanoma is more than 25 µM; in the assay on SF-295 CNS it was more than 25 µM; in the assay on SN12C renal, more than 25 µM; in the assay on LOX IMVI melanoma, more than 25 µM; with SK-MEL-5 melanoma, 4 µM; in the assay with NCI/ADR-RES ovarian, more than 25 µM. Further, the TGI in the assay with SW-620 colon is more than 25 µM; in the assay with CCRF-CEM leukemia, more than 25 µM; in the assay with BT-549 breast, more than 13.9 µM; in the assay with PC-3 prostate, more than 25 µM.
Consider `CC(=O)c1c(C)[nH]c(-c2nc3ccc(N4CCN(C)CC4)cc3[nH]2)c1-c1ccccc1`, for which the GI50 was 1.46 µM in the assay with UACC-257 melanoma; 2.07 µM in the assay on SF-295 CNS; 2.34 µM with SN12C renal; 0.546 µM with LOX IMVI melanoma; 1.35 µM in the assay on SK-MEL-5 melanoma; 2.48 µM with NCI/ADR-RES ovarian. For the same compound, the GI50 in the assay on SW-620 colon is 3.82 µM; with CCRF-CEM leukemia, 4.69 µM; in the assay on BT-549 breast it was 8.81 µM; in the assay on PC-3 prostate, 1.04 µM. Besides, the TGI in the assay on UACC-257 melanoma is 17.9 µM; in the assay on SF-295 CNS, 19.2 µM; in the assay with SN12C renal it was 23.2 µM; with LOX IMVI melanoma it was 10.1 µM; with SK-MEL-5 melanoma it was 10.4 µM; with NCI/ADR-RES ovarian it was more than 100 µM. Besides, the TGI is 24.8 µM in the assay on SW-620 colon, more than 100 µM in the assay on CCRF-CEM leukemia, 29.8 µM in the assay on BT-549 breast and more than 100 µM in the assay on PC-3 prostate.
